Source: patent publication US7622450B2, “Flavone C-glycoside derivatives and compositions containing the derivatives” (Suntory Holdings Limited, priority 2002, dated 2009)

Columns and labels:
DNFB-induced ear edema = experiment: Inhibitory effect on mouse ear contact dermatitis (DNFB-induced ear edema); assay type: in vivo, ICR strain mice; conditions: for Dose producing 50% inhibition of ear edema: DNFB-induced ear edema, mice, p.o.; for DNFB-induced edema vs control group: ICR mice, Student's t-test
Description: (§1) ICR strain mice at 7 weeks of age were purchased from CLEA Japan and used for experiments after preconditioning for 1 week. The yellow powder obtained in Example 1 [compound (1)] was suspended in 0.5% sodium carboxymethylcellulose/0.01N hydrochloric acid to prepare sample formulations at three concentrations corresponding to doses of 0.2, 1.0 and 5.0 μg/kg in a dose volume of 10 ml/kg. […] in six mice per group was established in 5 days by subcutaneous injection of 100 μl of a solution of 1% 2,4-dinitrofluorobenzene (DNFB) in ethanol on the back. On day 6, a solution of 1% DNFB in olive oil was applied on the right ear to induce ear contact dermatitis. After 24 hours, both ears were punched out in a diameter of 8 mm and weighed. Compound (1) was continuously orally administered for 7 days from the day before the primary challenge until the day on which edema was induced. A control group was treated with 0.5% sodium carboxymethylcellulose/0.01N hydrochloric acid. The experimental results were expressed as the average percentage of edema on the right in relation to left ears with standard deviation using Student's t-test for evaluating the significance between groups.
as §1, with “(2)]” for “(1)]”, “1.0, 10” for “0.2, 1.0”, “100” for “5.0”, “(2)” for “(1)”
The same procedures as in Experimental examples 1 and 2 were used to compare the inhibitory effects of a corticosteroid and several flavonoids (FIG. 3) on DNFB-induced ear edema formation with those of compound (1) and compound (2). The experimental results were expressed as the dose producing a 50% inhibition of DNFB-induced ear edema.

peritoneal mast cells = experiment: Inhibitory effect on histamine release from peritoneal mast cells (Compound 48/80); assay type: cell-based, Wistar strain rats; conditions: Mast cell, rat peritoneal mast cells
Description: Wistar strain rats at 7 weeks of age were purchased from CLEA Japan and used for experiments after preconditioning for 1 week. After Wistar strain rats were decapitated under ether anesthesia, Tyrode solution was intraperitoneally injected. Mast cells were routinely isolated and suspended at […] in Tyrode solution containing 0.1% bovine serum albumin (BSA) to prepare a mast cell suspension. The mast cell suspension was incubated with compound (1) or compound (2) dissolved in 50% methanol at 37° C. for 5 minutes. Then, the suspension was further incubated with Compound 48/80 at 37° C. for 10 minutes and cooled on ice and then centrifuged. Then, the free histamine content in the resulting supernatant was measured on a high-speed liquid chromatograph by the post-column method using ortho-phthalaldehyde (OPA) according to the method of Onda et al. [J. Med. Sci., 27, 93-97(1978)]. The experimental results were expressed as the percentage of histamine release inhibited by the treatment with the samples as compared with the treatment with the solvent alone.

| SMILES | Dose producing 50% inhibition of ear edema (DNFB-induced ear edema) [mg/kg p.o.] | also measured |
| --- | --- | --- |
| O=c1cc(-c2ccc(O)cc2)oc2cc(O)cc(O)c12 [Apigenin] | 247 | – |
| O=c1cc(-c2ccc(O)cc2)oc2c([C@@H]3O[C@H](CO)[C@@H](O)[C@H](O)[C@H]3O)c(O)cc(O)c12 [Vitexin] | 103 | – |
| O=c1cc(-c2ccc(O)cc2)oc2c3c(cc(O)c12)O[C@H]1[C@@H](O)[C@H](O)[C@@H](CO)O[C@@H]31 [Compound (2)] | 0.17 | DNFB-induced edema vs control group (DNFB-induced ear edema; 100 μg/kg orally for 7 days): significantly inhibited; inhibition at 50 µg/mL (peritoneal mast cells; concentration 50.0 μg/ml): 51.2% |
| C[C@@H]1O[C@@H](O[C@@H]2[C@@H](O)[C@H](O)[C@@H](CO)O[C@H]2c2c(O)cc(O)c3c(=O)cc(-c4ccc(O)cc4)oc23)[C@H](O)[C@H](O)[C@H]1O [Rhamnosyl vitexin] | 146 | – |
| C[C@@H]1O[C@@H](OC[C@H]2O[C@@H](Oc3c(-c4ccc(O)c(O)c4)oc4cc(O)cc(O)c4c3=O)[C@H](O)[C@@H](O)[C@@H]2O)[C@H](O)[C@H](O)[C@H]1O [Rutin] | 123 | – |
| O=c1c(O)c(-c2ccc(O)c(O)c2)oc2cc(O)cc(O)c12 [Quercetin] | 265 | – |
| O=c1cc(-c2ccc(O)cc2)oc2cc3c(c(O)c12)[C@@H]1O[C@H](CO)[C@@H](O)[C@H](O)[C@@H]1O3 [Compound (1)] | 0.05 | DNFB-induced edema vs control group (DNFB-induced ear edema; 1.0 μg/kg orally for 7 days): significantly inhibited; DNFB-induced edema vs control group (DNFB-induced ear edema; 5.0 μg/kg orally for 7 days): significantly inhibited; inhibition at 5 µg/mL (peritoneal mast cells; concentration 5.0 μg/ml): 62.3% |
| C[C@@H]1C[C@H]2[C@@H]3CCC4=CC(=O)C=C[C@]4(C)[C@@]3(F)[C@@H](O)C[C@]2(C)[C@@]1(O)C(=O)CO [Dexamethasone] | 1.5 | – |
